The values that follow come from patent publication US20230141863A1, “Small Molecule Inhibitors Targeting the Sodium Channel Tamoxifen Receptor and Uses Thereof” (Northwestern University, priority 2021, published 2023).

Structures are written as SMILES.

The assay concerns the target Nav1.7 DII S969A and DIV D1761A (Homo sapiens, UniProt Q15858). In words: Voltage clamp of Nav1.7 with alanine substitutions in DII and DIV. The class given is cell-based. The conditions noted are these: range over DII S969A and DIV D1761A. As to the method: While no clear drug-receptor interactions were determined within Siteout, the S6 E220 side chains formed hydrogen bond interactions with the ether and amine moieties of the ND-Tam molecules found at Sitein. […] After structural alignment of the crystalized NavMs-Tam complex with the cryo EM Nav1.7+b1+b2 channel coordinates, the S6 side chain hydroxyl in DII (S969) and the carboxyl side chains in DIII (E1458) and DIV (D1761) observed in the human channel were nearly superimposable with E220 of the prokaryotic Nav subunits. In addition, the distances from the drug ether and amines were within acceptable distances (2.8-3.1 Å) for hydrogen bond formation for all three site chains (FIG. 2B). […]
Plasmids encoding the human version of channels Nav1.1, 1.6, and 1.7 were co-transfected with TRES GFP into HEK cell lines for whole-cell voltage clamp studies (American Type Culture Collection). […] Plasma membrane currents were recorded using borosilicate glass electrodes polished to resistances of […]. Sodium currents conducted by heterologously expressed Navs were recorded using the following solutions (in mM). […] Endogenous DRG sodium currents were recorded using an intracellular solution consisting of 70 CsCl, 70 CsF, 2 EGTA, 5 HEPES, and 5 NaCl; the pH was adjusted to 7.4 with CsOH. […]

Sequence of Nav1.7 DII S969A and DIV D1761A (Q15858 whole entry S969A, form open): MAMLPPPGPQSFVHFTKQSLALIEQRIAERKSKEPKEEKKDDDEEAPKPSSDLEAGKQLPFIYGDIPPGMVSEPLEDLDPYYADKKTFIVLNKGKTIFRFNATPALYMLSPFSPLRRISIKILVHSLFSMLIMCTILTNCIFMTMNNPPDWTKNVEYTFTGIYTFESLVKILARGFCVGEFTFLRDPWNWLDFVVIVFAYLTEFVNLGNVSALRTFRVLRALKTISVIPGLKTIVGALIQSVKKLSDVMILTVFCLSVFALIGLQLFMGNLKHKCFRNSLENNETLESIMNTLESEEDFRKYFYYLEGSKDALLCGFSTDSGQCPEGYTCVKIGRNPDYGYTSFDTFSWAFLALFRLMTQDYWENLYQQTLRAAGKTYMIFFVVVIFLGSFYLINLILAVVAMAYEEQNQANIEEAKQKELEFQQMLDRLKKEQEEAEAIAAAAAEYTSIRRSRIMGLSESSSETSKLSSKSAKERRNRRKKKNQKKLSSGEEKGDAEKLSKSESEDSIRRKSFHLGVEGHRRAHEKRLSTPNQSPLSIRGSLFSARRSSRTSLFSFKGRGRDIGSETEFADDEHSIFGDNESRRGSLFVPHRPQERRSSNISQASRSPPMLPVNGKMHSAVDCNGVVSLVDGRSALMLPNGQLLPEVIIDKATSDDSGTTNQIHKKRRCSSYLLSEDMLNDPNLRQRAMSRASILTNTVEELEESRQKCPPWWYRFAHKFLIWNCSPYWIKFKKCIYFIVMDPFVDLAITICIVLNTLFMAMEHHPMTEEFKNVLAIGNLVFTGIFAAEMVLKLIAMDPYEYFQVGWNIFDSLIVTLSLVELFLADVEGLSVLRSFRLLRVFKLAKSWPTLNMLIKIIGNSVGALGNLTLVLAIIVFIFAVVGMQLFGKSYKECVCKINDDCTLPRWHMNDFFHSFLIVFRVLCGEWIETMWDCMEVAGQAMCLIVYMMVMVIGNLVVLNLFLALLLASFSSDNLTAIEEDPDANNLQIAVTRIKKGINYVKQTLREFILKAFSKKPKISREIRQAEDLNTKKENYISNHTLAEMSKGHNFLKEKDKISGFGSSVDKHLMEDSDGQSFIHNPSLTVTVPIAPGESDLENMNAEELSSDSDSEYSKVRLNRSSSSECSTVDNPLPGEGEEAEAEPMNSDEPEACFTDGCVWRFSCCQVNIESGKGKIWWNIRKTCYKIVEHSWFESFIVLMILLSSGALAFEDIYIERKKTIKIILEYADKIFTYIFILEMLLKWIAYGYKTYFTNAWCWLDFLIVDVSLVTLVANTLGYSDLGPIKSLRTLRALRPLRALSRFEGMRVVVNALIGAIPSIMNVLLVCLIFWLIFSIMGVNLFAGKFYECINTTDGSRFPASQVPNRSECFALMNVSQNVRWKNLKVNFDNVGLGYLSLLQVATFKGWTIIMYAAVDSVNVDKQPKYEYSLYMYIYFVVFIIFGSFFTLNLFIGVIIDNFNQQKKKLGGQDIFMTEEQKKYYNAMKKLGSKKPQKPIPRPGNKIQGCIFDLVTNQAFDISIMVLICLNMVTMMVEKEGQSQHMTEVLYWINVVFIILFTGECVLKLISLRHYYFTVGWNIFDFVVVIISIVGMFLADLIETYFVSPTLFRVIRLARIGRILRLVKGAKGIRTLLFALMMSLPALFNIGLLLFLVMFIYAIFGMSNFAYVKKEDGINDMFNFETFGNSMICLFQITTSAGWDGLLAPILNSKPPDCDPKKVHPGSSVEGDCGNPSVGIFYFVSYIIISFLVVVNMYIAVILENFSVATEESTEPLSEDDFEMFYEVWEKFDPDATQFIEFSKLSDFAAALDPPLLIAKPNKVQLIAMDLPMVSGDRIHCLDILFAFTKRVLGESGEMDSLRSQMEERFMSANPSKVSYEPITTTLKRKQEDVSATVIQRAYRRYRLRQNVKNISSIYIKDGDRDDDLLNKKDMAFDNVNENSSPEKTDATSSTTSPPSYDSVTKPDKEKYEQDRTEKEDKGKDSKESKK

As for `CC/C(=C(\c1ccccc1)c1ccc(OCCNC)cc1)c1ccccc1` [ND-Tam, 2-[4-[(Z)-1,2-diphenylbut-1-enyl]phenoxy]-N-methylethanamine], the slope of concentration-dependence is 1.3-1.4.
